PMC6328891, “Synthetic bovine lactoferrin peptide Lfampin kills Entamoeba histolytica trophozoites by necrosis and resolves amoebic intracecal infection in mice” (Bioscience Reports, 2019)
pIC50: −log10 of the molar value. Read-outs that look alike come from different tables or passages of the source. Ends that are not written are not given here.

Columns and labels:
[1] = tested on: E. histolytica HM1:IMSS trophozoites; format: cell-based, Entamoeba histolytica; conditions: MTT, 24 h
Description: Axenic E. histolytica HM1:IMSS trophozoites were maintained in TYI-S-33 medium supplemented with 15% adult bovine serum (Microlab) and 3% Diamond vitamin stock solution 40× (Sigma-Aldrich) under anaerobic conditions at 37°C for 72 h. Virulence of trophozoites was maintained through successive passages into hamster liver, followed by recovery of parasites from the induced amoebic liver abscesses. Trophozoites grown for 72 h (log-phase) were harvested by ice-chilling for 5 min and centrifugation at 150 g for 5 min at 4°C.
Trophozoites were harvested from cultures after 72 h, as mentioned above, and were seeded in 96-well culture plates at 2 × 10^4 trophozoites in 200 μl of fresh TYI-S-33 medium. […] The plates were incubated for 24 h at 37°C and viability was determined using 3-[4,5-dimethylthiazol-2-yl]-2,5-diphenyltetrazolium bromide (MTT). […] Finally, the absorbance at 595 nm was measured within 15 min, using a plate reader Multiskan FC (Thermo Scientific). A MTT calibration curve was previously calculated using amoeba densities of between 1 × 10^3 and 1 × 10^5 parasites/well. […] The total number of parasites after treatments was also determined following the same methodology, but adding to the wells only 250 µM of the peptides separately and incubating for 24 h at 37°C. Amoebas were harvested by ice chilling for 5 min and counted on a hemocytometer using a Nikon TMS inverted microscope.

E. histolytica = conditions: 20 mg/kg orally daily for 7 days, murine model, cited from earlier work
Description: Intestinal parasite infections, including amoebiasis, remain the main causes of morbidity and mortality in developing countries. In Mexico, amoebiasis is included in the list of the 20 most frequent communicable diseases, as the numbers of new cases of intestinal and hepatic amoebiasis in 2016 were approximately 220000 and 560, respectively, according to the Secretary of Health (http://www.epidemiologia.salud.gob.mx/anuario/2016/morbilidad/nacional/distribucion_casos_nuevos_enfermedad_fuente_notificacion.pdf). Treatment with metronidazole and other nitro-imidazole derivatives remains the ... || Finally, our results regarding the high efficiency of the peptides at resolving murine intestinal amoebiasis opens the possibility of using them as potential new compounds for the treatment of the disease, either alone or in combination with metronidazole. This would reduce the concentration of the drug needed to resolve an amoebic infection and, in turn, reduce the adverse effects of the drug and the potential development of resistance in the parasite. The mechanism by which the peptides controlled intestinal infection by amoebas in mice remains unknown. The higher efficiency of Lfampin, whic ...

Substance | pIC50 ([1]; 37°C, estimated (Supplementary Figure S1)) | trophozoites killed ([1]; doses higher than 100 μM) | intestinal infection resolved (E. histolytica) | intestinal infection resolved (E. histolytica; listed as native Lf)
DLIWKLLSKAQEKFGKNKSR [Lfampin] | 3.66 | 80% |  | 
lactoferrin |  |  | up to 63% | 63%
